Drawing on patent US7696208B2, “Therapeutic agents useful for treating pain” (Purdue Pharma L.P., priority 2003, dated 2010), this text covers IC50 for one molecule.

Assay [1] concerns the target T1, human VR1 (Homo sapiens, UniProt Q8NER1).
T1 construct: expressed in transfected cells; host or cells: HEK293-EcR cells, expression induced with ponasterone A
Put plainly: pH-based assay (FLIPR calcium influx, inducible HEK293-EcR cells expressing human VR1). It is filed as cell-based. The note with it: agonist buffer giving pH 5.5, HEK293-EcR cells induced with 5 μM PonA, Fluo-4, FLIPR, n=5. As to the method: (§1) Human VR1 Cloning: Human spinal cord RNA (commercially available from Clontech, Palo Alto, Calif.) was used. Reverse transcription was conducted on 1.0 μg total RNA using Thermoscript Reverse Transcriptase (commercially available from Invitrogen, Carlsbad, Calif.) and oligo dT primers as detailed in its product description. Reverse transcription reactions were incubated at 55° C. for 1 h, heat-inactivated at 85° C. for 5 min, and RNase H-treated at 37° C. for 20 min.
(§2) Human VR1 cDNA sequence was obtained by comparison of the human genomic sequence, prior to annotation, to the published rat sequence. Intron sequences were removed and flanking exonic sequences were joined to generate the hypothetical human cDNA. Primers flanking the coding region of human VR1 were designed as follows: forward primer, […]; and reverse primer, […]. […]
(§3) Generation of Inducible Cell Lines: Unless noted otherwise, cell culture reagents were purchased from Life Technologies of Rockville, Md. […] On the day of assay, cells were loaded with Fluo-4 (a calcium-sensitive dye that is commercially available from Molecular Probes, Eugene, Oreg.) and CAP-mediated calcium influx was measured using a FLIPR as described below. […]

Assay [2] deals with T1, human VR1. Put plainly: Capsaicin-based assay (FLIPR calcium influx, inducible HEK293-EcR cells expressing human VR1). It is filed as cell-based. The note with it: activation by 50 μL of capsaicin (400 nM), HEK293-EcR cells induced with 5 μM PonA, Fluo-4, FLIPR, n=3. As to the method: as §1, §2, §3

T1 sequence (Q8NER1 whole entry): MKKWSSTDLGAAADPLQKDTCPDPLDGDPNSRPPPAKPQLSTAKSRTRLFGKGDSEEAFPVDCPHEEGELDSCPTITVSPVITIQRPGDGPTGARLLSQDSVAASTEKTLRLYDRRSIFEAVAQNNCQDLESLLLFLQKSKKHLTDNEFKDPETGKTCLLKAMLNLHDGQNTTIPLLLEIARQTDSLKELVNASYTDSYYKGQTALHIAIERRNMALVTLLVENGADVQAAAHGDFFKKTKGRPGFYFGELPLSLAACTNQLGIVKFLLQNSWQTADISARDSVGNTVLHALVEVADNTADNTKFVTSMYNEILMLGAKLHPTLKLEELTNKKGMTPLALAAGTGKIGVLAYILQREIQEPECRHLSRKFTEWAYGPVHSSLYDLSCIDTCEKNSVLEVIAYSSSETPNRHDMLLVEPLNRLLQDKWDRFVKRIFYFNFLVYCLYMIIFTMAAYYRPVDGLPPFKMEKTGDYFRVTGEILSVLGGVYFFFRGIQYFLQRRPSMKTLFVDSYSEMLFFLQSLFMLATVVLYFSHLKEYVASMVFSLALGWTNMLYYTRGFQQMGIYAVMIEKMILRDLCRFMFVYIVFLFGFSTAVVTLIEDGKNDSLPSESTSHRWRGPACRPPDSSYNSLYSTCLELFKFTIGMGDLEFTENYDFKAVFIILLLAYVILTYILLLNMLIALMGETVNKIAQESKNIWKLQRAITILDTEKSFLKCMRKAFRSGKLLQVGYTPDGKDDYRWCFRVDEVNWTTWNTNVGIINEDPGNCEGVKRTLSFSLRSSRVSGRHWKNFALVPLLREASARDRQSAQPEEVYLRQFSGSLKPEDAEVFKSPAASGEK

The IC50 is the concentration needed to halve the response being measured. For `O=C(NCCc1ccccc1)N1CCN(c2ncccc2C(F)(F)F)CC1` [Compound A19], the IC50 at human VR1 [1] is 808 ± 254 nM; at human VR1 [2], 382 ± 64.2 nM.
